Measurements reported in the supplement of paper PMC10307832.

compound: c1ccc2c(CCNc3ccc(Nc4ccncc4)cc3)c[nH]c2c1 [Serdemetan] + COc1cccc2cc(-c3nc([C@H]4CC[C@H](C(=O)O)CC4)n4ncnc(N)c34)[nH]c12 [OSI-027] (partner 0.5 µM); assay: relative viability (nuclei count vs DMSO), 5 days (fraction); higher = more cells survive; settings: first compound 0.04 µM
How it was run: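 Relative viability equals treated-well nuclei counts divided by vehicle-well nuclei counts. Counts came from 4× images of lung cancer cell lines grown in 1536-well plates for 5 days after pin-tool dosing on the day after seeding. Dosing used one drug alone or a fixed anchor-drug dose plus five library-drug doses (not always all listed) in √10 steps, and values are medians of duplicate plates.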

Row | Cell Line | relative viability
1 | HCC-78 | 0.401
2 | NCI-H322M | 0.52
3 | LCLC-97TM1 | 0.371
4 | NCI-H2009 | 0.653
5 | A-427 | 0.526
6 | NCI-H661 | 0.689
7 | NCI-H1734 | 0.586
8 | NCI-H460 | 0.61
9 | NCI-H2347 | 0.412
10 | SK-LU-1 | 0.424
11 | 201T | 0.584
12 | NCI-H1915 | 0.683
13 | HCC-827 | 0.787
14 | LXF-289 | 0.802
15 | NCI-H23 | 0.636
16 | NCI-H647 | 0.609

Row | Cell Line | relative viability
17 | CAL-12T | 0.827
18 | NCI-H1651 | 0.627
19 | EPLC-272H | 0.285
20 | NCI-H2228 | 0.526
21 | NCI-H1792 | 0.752
22 | NCI-H1355 | 0.465
23 | NCI-H3122 | 0.98
24 | NCI-H1437 | 0.872
25 | NCI-H1755 | 0.725
26 | NCI-H2023 | 0.395
27 | HCC-15 | 0.643
28 | PC-14 | 0.843
29 | EKVX | 0.731
30 | LC-2-ad | 0.716
31 | NCI-H1563 | 0.747
32 | NCI-H1944 | 0.435

same assay, conditions: first compound 0.1265 µM

Row | Cell Line | relative viability
33 | BEN | 0.292
34 | HARA | 0.703
35 | HCC-78 | 0.297
36 | NCI-H322M | 0.56
37 | LCLC-97TM1 | 0.553
38 | NCI-H2009 | 0.678
39 | A-427 | 0.509
40 | NCI-H661 | 0.706
41 | NCI-H1734 | 0.523
42 | NCI-H460 | 0.691
43 | NCI-H2347 | 0.501
44 | SK-LU-1 | 0.405
45 | 201T | 0.676
46 | NCI-H1915 | 0.688
47 | HCC-827 | 0.743
48 | LXF-289 | 0.847
49 | NCI-H23 | 0.702

Row | Cell Line | relative viability
50 | NCI-H647 | 0.634
51 | CAL-12T | 0.638
52 | NCI-H1651 | 0.571
53 | EPLC-272H | 0.355
54 | NCI-H2228 | 0.523
55 | NCI-H1792 | 0.718
56 | NCI-H1355 | 0.452
57 | NCI-H3122 | 0.949
58 | NCI-H1437 | 0.865
59 | NCI-H1755 | 0.687
60 | NCI-H2023 | 0.383
61 | HCC-15 | 0.75
62 | PC-14 | 0.767
63 | EKVX | 0.708
64 | LC-2-ad | 0.85
65 | NCI-H1563 | 0.74
66 | NCI-H1944 | 0.42

same assay, conditions: first compound 0.4 µM

Row | Cell Line | relative viability
67 | BEN | 0.272
68 | HARA | 0.395
69 | HCC-78 | 0.321
70 | NCI-H322M | 0.681
71 | LCLC-97TM1 | 0.412
72 | NCI-H2009 | 0.628
73 | A-427 | 0.539
74 | NCI-H661 | 0.736
75 | NCI-H1734 | 0.554
76 | NCI-H460 | 0.641
77 | NCI-H2347 | 0.431
78 | SK-LU-1 | 0.405
79 | 201T | 0.76
80 | NCI-H1915 | 0.586
81 | LXF-289 | 0.811
82 | NCI-H23 | 0.607
83 | NCI-H647 | 0.751

Row | Cell Line | relative viability
84 | CAL-12T | 0.653
85 | NCI-H1651 | 0.777
86 | EPLC-272H | 0.296
87 | NCI-H2228 | 0.464
88 | NCI-H1792 | 0.677
89 | NCI-H1355 | 0.35
90 | NCI-H3122 | 0.943
91 | NCI-H1437 | 0.868
92 | NCI-H1755 | 0.686
93 | NCI-H2023 | 0.324
94 | HCC-15 | 0.624
95 | PC-14 | 0.139
96 | EKVX | 0.671
97 | LC-2-ad | 0.877
98 | NCI-H1563 | 0.732
99 | NCI-H1944 | 0.394

same assay, conditions: first compound 1.265 µM

Row | Cell Line | relative viability
100 | HARA | 0.274
101 | HCC-78 | 0.308
102 | NCI-H322M | 0.509
103 | NCI-H2009 | 0.55
104 | A-427 | 0.455
105 | NCI-H661 | 0.672
106 | NCI-H1734 | 0.138
107 | NCI-H460 | 0.342
108 | NCI-H2347 | 0.4
109 | NCI-H1915 | 0.362
110 | HCC-827 | 0.696
111 | LXF-289 | 0.691
112 | NCI-H23 | 0.43
113 | NCI-H647 | 0.585
114 | CAL-12T | 0.579
115 | NCI-H1651 | 0.369
116 | EPLC-272H | 0.248
117 | NCI-H2228 | 0.17
118 | NCI-H1792 | 0.42
119 | NCI-H1355 | 0.35
120 | NCI-H3122 | 0.322
121 | NCI-H1437 | 0.585
122 | NCI-H1755 | 0.563
123 | NCI-H2023 | 0.255
124 | HCC-15 | 0.452
125 | PC-14 | 0.759
126 | LC-2-ad | 0.659
127 | NCI-H1563 | 0.62
128 | NCI-H1944 | 0.331

same assay, conditions: first compound 4 µM

Row | Cell Line | relative viability
129 | BEN | 0.286
130 | HARA | 0.304
131 | HCC-78 | 0.289
132 | NCI-H322M | 0.422
133 | LCLC-97TM1 | 0.528
134 | NCI-H2009 | 0.466
135 | A-427 | 0.36
136 | NCI-H661 | 0.69
137 | NCI-H1734 | 0.196
138 | NCI-H460 | 0.0861
139 | NCI-H2347 | 0.258
140 | SK-LU-1 | 0.246
141 | 201T | 0.664
142 | NCI-H1915 | 0.566
143 | HCC-827 | 0.627
144 | LXF-289 | 0.729
145 | NCI-H23 | 0.531

Row | Cell Line | relative viability
146 | NCI-H647 | 0.648
147 | CAL-12T | 0.518
148 | NCI-H1651 | 0.313
149 | EPLC-272H | 0.272
150 | NCI-H2228 | 0.221
151 | NCI-H1792 | 0.426
152 | NCI-H1355 | 0.382
153 | NCI-H3122 | 0.974
154 | NCI-H1437 | 0.729
155 | NCI-H1755 | 0.568
156 | NCI-H2023 | 0.191
157 | HCC-15 | 0.522
158 | PC-14 | 0.514
159 | EKVX | 0.588
160 | LC-2-ad | 0.763
161 | NCI-H1563 | 0.614
162 | NCI-H1944 | 0.379
